Patent US20130065959A1, “SANITIZING MEAT WITH PERACID AND 2-HYDROXY ORGANIC ACID COMPOSITIONS” (Fresh Express Incorporated, priority 2009, published 2013)

How the values were obtained:
Assay type in all cases: cell-based
[1] = system: Pseudomonas aeruginosa (ATCC 9027); assay: Attached cells on non-food surface coupons (Example 6); settings: 90 sec
Procedure: Inoculum preparation: Pseudomonas aeruginosa (ATCC 9027) freeze dried culture was rehydrated in 10 mL of sterilized nutrient broth (NB) and mixed homogeneously. 0.1 mL of the stock solution was transferred to 10 mL of NB and incubated at 37C for 24 h. Enrichment was streaked to confirm purity. 10 mL of the enriched stock was transferred to 1,000 mL of NB and incubated at 37C for 24 h resulting in ˜10^8 cfu/mL stationary phase culture stock. The stock was cooled at 4C for 1 h. Microbial population of the stationary phase stock culture was enumerated by means of serial dilution with 9-mL Butterfield phosphate buffer tubes and spread plating on Nutrient Agar […] pre-poured agar plates.
Non-food surface inoculation: The 1000 mL˜10^8 cfu/mL stock culture solution was homogeneously mixed by shaking and swirling the Erlenmeyer flask. The 1000 mL culture was separated into 20 centrifuge tubes (50 mL each) and centrifuged at 10,000 rpm and 4C for 15 min. The stock culture pellet was re-suspended with 50 mL of NB. All the re-suspended cultures from the 20 centrifuge tubes were combined to form 1,000 mL˜10^8 cfu/mL inoculating stock culture. 15 mL of the P. aeruginosa inoculating stock together with a non-food surface coupon (2.5 cm×5 cm) were placed in a sterilized 50mL-centrifuge tube and incubated for 24 h at 37C. After 24 hr, the coupon was transferred to a sterile Petri dish and placed in an oven to dry for 1 hour at 35C. The coupons were cut from stainless steel sheet, wood, glass slide, and plastic sheet.
Treatment of inoculated non-food surfaces: 1 mL of test solution was dispensed onto a 2.5cm×2.5 cm marked area of each inoculated coupon for 60 s. A pre-wet sterilized cotton swab was dipped in 10 mL Butterfield phosphate buffer with sodium thiosulfate and swabbed the marked area on the coupon after 60 s exposure. The swabbed was then immediately placed into the 10 mL Butterfield phosphate buffer with sodium thiosulfate and mixed. One mL was immediately transferred from the aforementioned tube to a 9 mL Butterfield phosphate buffer. The total treatment time including the exposure time, the swabbing time, and the transfer time was 90 s. Each solution treatment was performed in duplications. The reduction for each solution treatment was compared to that of the city water treatment.

[2] = system: Lactobacillus plantarum 14917; assay: Suspended Cells Challenge Test, 20 s residence time, no surfactant (Example 2)
Procedure: (§1) Synergism with respect to efficacy in a Suspended Cells Challenge Test at 20 s residence time with no surfactant.
(§2) The experimental treatment groups were tap water, chlorinated water, a FE sanitizer wash water (FE, FE sanitizer, a solution of peroxyacetic acid and lactic acid, as further specified in a given experiment).
(§3) The experimental protocol was as follows: • 1. Transfer 1.00 mL of a ˜10^8 cfu/g Lactobacillus plantarum (ATCC 14917) stock culture into a test tube containing 9.00 mL of treatment test solution • 2. Vortex the mixture for 15 s • 3. Stop the reaction by transferring 1 mL of the treated samples to 9 mL of Butterfield Phosphate Buffer • 4. Enumerate viable residual cells through serial dilutions and spread plating with 1-mL transfers • 5. […] Repeat Steps 1 to 5 two more times • 7. Repeat Steps 1 to 6 with flume water • 8. Repeat Steps 1 to 6 with chlorinated water • 9. Repeat Steps 1 to 8 with various levels of FE • 10. Repeat Steps 1 to 8 with various levels of lactic acid • 11. Repeat Steps 1 to 8 with various levels of peroxyacetic acid • 12. Repeat Steps 1 to 11 with Listeria innocua (ATCC33090)
(§4) • 1. Log […] is a measure of the percent of microorganisms that are inactivated during the disinfection process and is defined as Log Inactivation=Log10 (No/NT) where No is the initial influent concentration of viable microorganisms; NT is the concentration of surviving microorganisms. As M cfu/g=microbial population of stock culture; W cfu/g=microbial population in solution of “Water Treatment” and X cfu/g=microbial population in solution of “X Treatment,” the Log reduction caused by “Treatment X”=Log (w/x)

[3] = system: Listeria innocua ATCC 33090; assay: as above
Procedure: as §1, §2, §3, §4

[4] = Peroxyacetic acid 0 ppm, Lactic Acid 2000 ppm
[5] = Peroxyacetic acid 0 ppm, Lactic Acid 2500 ppm
[6] = Peroxyacetic acid 0 ppm, Lactic Acid 3000 ppm
[7] = Peroxyacetic acid 70 ppm, Lactic Acid 0 ppm
[8] = Peroxyacetic acid 75 ppm, Lactic Acid 0 ppm
[9] = Peroxyacetic acid 80 ppm, Lactic Acid 0 ppm

CC(O)C(=O)O (stereo not shown) [Lactic Acid, lactic acid]
Log reductions ([1]; Glass coupon, PA 0 ppm, LA 1,250 ppm): 0.4
Log reductions ([1]; Glass coupon, PA 0 ppm, LA 2,500 ppm): 1.7
Log reductions ([1]; Plastic coupon, PA 0 ppm, LA 2,500 ppm): 0.6
Log reductions ([1]; Plastic coupon, PA 0 ppm, LA 5,000 ppm): 1.2
Log reductions ([1]; Stainless steel coupon, PA 0 ppm, LA 1,250 ppm): 1.6
Log reductions ([1]; Stainless steel coupon, PA 0 ppm, LA 2,500 ppm): 1.9
Log reductions ([1]; Wood coupon, PA 0 ppm, LA 2,500 ppm): 1.4
Log reductions ([1]; Wood coupon, PA 0 ppm, LA 7,500 ppm): 3.6
log reduction of suspended cells [2, 4]: 0.00 log10
log reduction of suspended cells [2, 5]: 0.02 log10
log reduction of suspended cells [2, 6]: 0.01 log10
log reduction of suspended cells [3, 4]: 0.08 log10
log reduction of suspended cells [3, 5]: 0.19 log10
log reduction of suspended cells [3, 6]: 0.05 log10

CC(=O)OO [Peroxyacetic acid, peroxyacetic acid]
Log reductions ([1]; Glass coupon, PA 60 ppm, LA 0 ppm): 0.2
Log reductions ([1]; Glass coupon, PA 80 ppm, LA 0 ppm): 0.0
Log reductions ([1]; Plastic coupon, PA 60 ppm, LA 0 ppm): 1.2
Log reductions ([1]; Plastic coupon, PA 80 ppm, LA 0 ppm): 0.9
Log reductions ([1]; Stainless steel coupon, PA 60 ppm, LA 0 ppm): 1.5
Log reductions ([1]; Stainless steel coupon, PA 100 ppm, LA 0 ppm): 1.4
Log reductions ([1]; Wood coupon, PA 100 ppm, LA 0 ppm): 1.0
Log reductions ([1]; Wood coupon, PA 140 ppm, LA 0 ppm): 0.8
log reduction of suspended cells [2, 7]: 4.52 log10
log reduction of suspended cells [2, 8]: 5.59 log10
log reduction of suspended cells [2, 9]: 5.59 log10
log reduction of suspended cells [3, 7]: 1.40 log10
log reduction of suspended cells [3, 8]: 1.70 log10
log reduction of suspended cells [3, 9]: 1.80 log10
